Experiments:
Spodoptera frugiperda = Spodoptera frugiperda - spray test (SPODFR); type: in vivo; conditions: application rate 100 g/ha, maize leaf disks
Procedure, shortened: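 Maize leaf disks sprayed with compound in acetone/DMF with alkylaryl polyglycol ether emulsifier, diluted in water to test concentration, then infested with armyworm caterpillars once dry. Efficacy given as % caterpillars killed (100% all, 0% none) after the chosen period.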

Lucilia cuprina = Lucilia cuprina test (LUCICU); type: in vivo; conditions: application rate 100 ppm
Description: Lucilia cuprina-Test (LUCICU)
(§1) Solvent: dimethyl sulfoxide
(§2) To produce a suitable preparation of active compound, 10 mg of active compound are mixed with 0.5 ml of dimethyl sulfoxide, and the concentrate is diluted with water to the desired concentration.
About 20 L1 larvae of the Australian sheep blowfly (Lucilia cuprina) are transferred into a test vessel containing minced horsemeat and the active compound preparation of the desired concentration.
After the desired time, the kill in % is determined. 100% means that all the larvae have been killed; 0% means that no larvae have been killed.

Musca domestica = Musca domestica test (MUSCDO); type: in vivo
Description: Musca domestica-Test (MUSCDO)
as §1, §2
Vessels containing a sponge treated with sugar solution and the active compound preparation of the desired concentration are populated with 10 adult houseflies (Musca domestica).
After the desired time, the kill in % is determined. 100% means that all of the flies have been killed; 0% means that none of the flies have been killed.

[1] = log P by HPLC on reversed-phase column (C18), EEC directive 79/831 Annex V.A8; type: physicochemical; conditions: for log p: HPLC reversed-phase C18, 43° C., data refer to the E isomer
Description: The log P values reported in the tables and Preparation Examples above were determined in accordance with EEC directive 79/831 Annex V.A8 by HPLC (High Performance Liquid Chromatography) using a reversed-phase column (C18). Temperature 43° C. The calibration is effected with unbranched alkan-2-ones (having 3 to 16 carbon atoms), for which the log P values are known.

Boophilus microplus = Boophilus microplus - injection test (BOOPMI Inj); type: in vivo; conditions: application rate 20 μg/animal, injection into engorged adult female cattle ticks
Description: Boophilus microplus—Injection Test (BOOPMI Inj)
as §1
To produce a suitable preparation of active compound, 10 mg of active compound are mixed with 0.5 ml of solvent and the concentrate is diluted with solvent to the desired concentration.
1 μl of the active compound solution is injected into the abdomen of 5 engorged adult female cattle ticks (Boophilus microplus). The animals are transferred into dishes and kept in a climate-controlled room.
The activity is assessed after the desired time by laying of fertile eggs. Eggs which are not visibly fertile are stored in a climate-controlled cabinet until the larvae hatch after about 42 days. An efficacy of 100% means that none of the ticks has laid any fertile eggs; 0% means that all the eggs are fertile.

Myzus persicae = Myzus persicae - spray test (MYZUPE); type: in vivo; conditions: application rate 100 g/ha, Chinese cabbage leaf disks
Procedure, shortened: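 Chinese cabbage leaf disks carrying all stages of green peach aphid were sprayed with compound in acetone/DMF with emulsifier, diluted in water. After the chosen period, efficacy was scored as % aphids killed.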

Phaedon cochleariae = Phaedon cochleariae - spray test (PHAECO); type: in vivo; conditions: application rate 100 g/ha, Chinese cabbage leaf disks
Procedure, shortened: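 Active compound in acetone/dimethylformamide with alkylaryl polyglycol ether emulsifier was diluted with emulsifier-containing water to the test concentration and sprayed. After the set period, efficacy was scored as % larvae killed (100% = all beetle larvae dead, 0% = none).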

Tetranychus urticae = Tetranychus urticae - spray test, OP-resistant (TETRUR); type: in vivo; conditions: application rate 100 g/ha, bean leaf disks
Description: Tetranychus urticae—Spray Test, OP-Resistant (TETRUR)
Solvent: 78.0 parts by weight of acetone • • 1.5 parts by weight of dimethylformamide
Emulsifier: 0.5 parts by weight of alkylaryl polyglycol ether
To produce a suitable active compound preparation, 1 part by weight of active compound is mixed with the stated amounts of solvent and emulsifier, and the concentrate is diluted with emulsifier-containing water to the desired concentration.
Disks of bean leaves (Phaseolus vulgaris) infested with all stages of the greenhouse red spider mite (Tetranychus urticae) are sprayed with an active compound preparation of the desired concentration.
After the desired period of time, the efficacy in % is determined. 100% means that all the spider mites have been killed; 0% means that none of the spider mites have been killed.

Row | Compound | efficacy (caterpillars killed) (Spodoptera frugiperda) [%] | efficacy (kill of L1 larvae) (Lucilia cuprina) [%] | efficacy (kill of adult houseflies) (Musca domestica; application rate 100 ppm) [%] | log p ([1]; Table A) | efficacy (no fertile eggs laid) (Boophilus microplus) [%] | efficacy (aphids killed) (Myzus persicae) [%] | efficacy (beetle larvae killed) (Phaedon cochleariae) [%] | log p ([1]; Table B) | efficacy (spider mites killed) (Tetranychus urticae) [%] | efficacy (kill of adult houseflies) (Musca domestica; application rate 20 ppm) [%] | log p ([1]; Table C) | chromatographic logP ([1]; log P) | chromatographic logP ([1]; log p)
1 | CON=Cc1cc(C)c(NC(=O)c2cc(C(F)F)nn2-c2ncccc2Cl)c(C(=O)NN(C)C(=O)OC)c1 (mixture of isomers) [A-41] | 100 | 100 | 80 | 2.46 | 100 | 90 | 100 |  |  |  |  |  | 
2 | CON=Cc1cc(C)c(NC(=O)c2cc(Br)nn2-c2ncccc2Cl)c(C(=O)NNC(=O)OC)c1 (mixture of isomers) [A-42] | 100 | 100 | 80 | 2.38 | 100 | 100 | 100 |  |  |  |  |  | 
3 | CON=Cc1cc(C)c(NC(=O)c2cc(C(F)(F)F)nn2-c2ncccc2Cl)c(C(=O)NC2COC2)c1 (mixture of isomers) [B-02] | 100 | 100 |  |  | 100 | 100 | 100 | 2.78 | 90 |  |  |  | 
4 | CON=Cc1cc(C)c(NC(=O)c2cc(C(F)F)nn2-c2ncccc2Cl)c(C(=O)NC(C)C)c1 [C-29] | 100 | 100 |  |  | 100 | 100 | 100 |  |  | 100 | 2.98 |  | 
5 | CO/N=C/c1cc(C)c(NC(=O)c2cc(OC(F)F)nn2-c2ncccc2Cl)c(C(=O)NNC(=O)OC)c1 [A-02, Methyl 2-{2-({[1-(3-chloropyridin-2-yl)-3-(difluoromethoxy)-1H-pyrazol-5-yl]carbonyl}amino)-5-[(E)-(methoxyimino)methyl]-3-methylbenzoyl}hydrazinecarboxylate] | 100 |  |  |  |  | 90 | 100 |  | 90 |  |  | 2.28 | 2.38
6 | CON=Cc1cc(C)c(NC(=O)c2cc(Br)nn2-c2ncccc2Cl)c(C(=O)NC2(C)CSC2)c1 (mixture of isomers) [B-01] | 100 |  |  |  |  | 90 | 100 | 3.22 | 100 |  |  |  | 
7 | CCOC(=O)NNC(=O)c1cc(C=NOC)cc(C)c1NC(=O)c1cc(C(F)(F)F)nn1-c1ncccc1Cl [A-17] | 100 | 100 |  | 2.92 | 100 | 90 | 100 |  | 90 | 80 |  |  | 
8 | CO/N=C/c1cc(C)c(NC(=O)c2cc(OCC(F)F)nn2-c2ncccc2Cl)c(C(=O)NN(C)C(=O)OC)c1 [A-01, Methyl 2-{2-({[1-(3-chloropyridin-2-yl)-3-(2,2-difluoroethoxy)-1H-pyrazol-5-yl]carbonyl}amino)-5-[(E)-(methoxyimino)methyl]-3-methylbenzoyl}-1-methylhydrazinecarboxylate] | 100 |  |  |  |  | 90 | 100 |  | 90 |  |  | 2.58 | 2.58
9 | CNC(=O)c1cc(C=NOC)cc(C)c1NC(=O)c1cc(C(F)F)nn1-c1ncccc1Cl [C-28] | 100 | 100 | 80 |  | 100 | 90 | 100 |  |  |  | 2.48 |  | 
10 | CON=Cc1cc(C)c(NC(=O)c2cc(C(F)(F)F)nn2-c2ncccc2Cl)c(C(=O)NN(C)C(=O)OC)c1 (mixture of isomers) [A-46] | 100 |  |  | 2.85 |  | 90 | 100 |  | 100 |  |  |  | 
11 | CON=Cc1cc(C)c(NC(=O)c2cc(OC)nn2-c2ncccc2Cl)c(C(=O)NC(C)C)c1 [C-24] | 100 | 100 | 100 |  | 100 | 100 | 100 |  |  |  | 2.65 |  | 
12 | CON=Cc1cc(C)c(NC(=O)c2cc(OC)nn2-c2ncccc2Cl)c(C(=O)NN(C)C(=O)OC)c1 (mixture of isomers) [A-43] | 100 |  |  | 2.19 |  | 100 | 100 |  | 100 |  |  |  | 
13 | C#CCOC(=O)NNC(=O)c1cc(C=NOC)cc(C)c1NC(=O)c1cc(C(F)(F)F)nn1-c1ncccc1Cl [A-22] | 100 | 100 |  | 2.86 | 100 | 100 | 100 |  | 100 | 100 |  |  | 
14 | CON=Cc1cc(C)c(NC(=O)c2cc(CF)nn2-c2ncccc2Cl)c(C(=O)NC(C)C2CC2)c1 (centres unmarked) [C-43] | 100 |  |  |  |  | 90 | 100 |  | 90 |  | 2.96 |  | 
15 | CON=Cc1cc(C)c(NC(=O)c2cc(CF)nn2-c2ncccc2Cl)c(C(=O)NC2CC2)c1 [C-42] | 100 | 100 | 90 |  | 100 | 90 | 100 |  | 100 |  | 2.38 |  | 
16 | C#CCOC(=O)NN(C)C(=O)c1cc(C=NOC)cc(C)c1NC(=O)c1cc(C(F)(F)F)nn1-c1ncccc1Cl [A-29] | 100 | 100 |  | 3.16 | 95 | 90 |  |  | 90 |  |  |  | 
17 | CON=Cc1cc(C)c(NC(=O)c2cc(C(F)F)nn2-c2ncccc2Cl)c(C(=O)NNC(=O)OC)c1 (mixture of isomers) [A-39] | 100 | 100 | 80 | 2.26 | 100 | 90 | 100 |  |  |  |  |  | 
18 | CON=Cc1cc(C)c(NC(=O)c2cc(C(F)(F)F)nn2-c2ncccc2Cl)c(C(=O)NNC(=O)Oc2ccccc2)c1 [A-19] | 100 | 100 |  | 3.02 | 95 |  | 100 |  | 90 |  |  |  | 
19 | CON=Cc1cc(C)c(NC(=O)c2cc(OCC(F)F)nn2-c2ncccc2Cl)c(C(=O)NC(C)C)c1 [C-19] | 100 | 100 |  |  | 100 | 90 |  |  |  | 80 | 3.07 |  | 
20 | CON=Cc1cc(C)c(NC(=O)c2cc(CF)nn2-c2ncccc2Cl)c(C(=O)NC(C)(C)C)c1 [C-44] | 100 |  |  |  |  | 100 | 100 |  | 90 |  | 3.00 |  | 

Reference: patent US9609868B2, “Alkoximino-substituted anthranilic acid diamides as pesticides” (BAYER CROPSCIENCE AKTIENGESELLSCHAFT, priority 2013, dated 2017)
